In BindingDB's records for doi:10.1210/edrv-16-4-427 (University of Pennsylvania, 1995):
Peptide text beside a SMILES is read from it.

Assays:
[1] = target: Somatostatin receptor type 3 (Homo sapiens, UniProt P32745)
[2] = target: Somatostatin receptor type 4 (Homo sapiens, UniProt P31391)
[3] = target: Somatostatin receptor type 2 (Homo sapiens, UniProt P30874)
Chain of Somatostatin receptor type 2 (P30874 whole entry): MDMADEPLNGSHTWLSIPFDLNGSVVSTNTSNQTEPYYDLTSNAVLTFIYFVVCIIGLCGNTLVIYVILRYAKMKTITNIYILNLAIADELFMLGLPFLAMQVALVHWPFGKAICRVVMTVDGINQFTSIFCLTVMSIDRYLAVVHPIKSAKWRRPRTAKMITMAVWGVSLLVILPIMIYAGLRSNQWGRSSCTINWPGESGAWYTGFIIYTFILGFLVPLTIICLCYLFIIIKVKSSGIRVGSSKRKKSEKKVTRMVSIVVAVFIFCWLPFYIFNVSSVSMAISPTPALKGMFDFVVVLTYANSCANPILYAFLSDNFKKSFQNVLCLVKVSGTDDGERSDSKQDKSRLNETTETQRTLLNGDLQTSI

Chain of Somatostatin receptor type 3 (P32745 whole entry): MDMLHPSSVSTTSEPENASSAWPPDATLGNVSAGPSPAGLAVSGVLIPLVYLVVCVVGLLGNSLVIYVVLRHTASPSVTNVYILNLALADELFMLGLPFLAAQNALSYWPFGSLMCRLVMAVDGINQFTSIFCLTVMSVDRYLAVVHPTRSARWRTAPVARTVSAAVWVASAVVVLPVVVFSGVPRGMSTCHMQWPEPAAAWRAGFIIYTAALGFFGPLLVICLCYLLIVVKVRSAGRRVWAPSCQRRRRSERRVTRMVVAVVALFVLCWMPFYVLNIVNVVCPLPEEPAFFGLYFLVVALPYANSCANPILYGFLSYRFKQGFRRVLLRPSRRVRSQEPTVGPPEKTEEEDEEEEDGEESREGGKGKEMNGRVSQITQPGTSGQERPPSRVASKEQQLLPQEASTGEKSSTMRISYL
Chain of Somatostatin receptor type 4 (P31391 whole entry): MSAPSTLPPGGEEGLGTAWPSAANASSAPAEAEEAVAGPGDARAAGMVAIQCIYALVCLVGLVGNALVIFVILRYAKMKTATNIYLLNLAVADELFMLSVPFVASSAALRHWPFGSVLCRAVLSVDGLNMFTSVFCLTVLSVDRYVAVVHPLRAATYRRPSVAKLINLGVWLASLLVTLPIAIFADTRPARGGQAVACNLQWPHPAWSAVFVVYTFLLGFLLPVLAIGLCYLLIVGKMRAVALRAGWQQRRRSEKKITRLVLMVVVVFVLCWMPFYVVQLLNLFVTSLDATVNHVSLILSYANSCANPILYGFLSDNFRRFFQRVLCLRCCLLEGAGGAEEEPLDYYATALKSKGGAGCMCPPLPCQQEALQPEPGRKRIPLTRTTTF

Row | SMILES | Ki [1] [nM] | Ki [2] [nM] | Ki [3] [nM]
1 | CC(C)[C@@H]1NC(=O)[C@H](CCCCN)NC(=O)[C@@H](Cc2c[nH]c3ccccc23)NC(=O)[C@H](Cc2ccc(O)cc2)NC(=O)[C@H](C)N(C)C(=O)[C@H](Cc2ccccc2)NC1=O [CAS_3086456] | 268 | – | –
2 | C[C@@H](O)[C@@H]1NC(=O)[C@H](Cc2ccc(O)cc2)NC(=O)[C@H]([C@@H](C)O)NC(=O)[C@H](CCCCN)NC(=O)[C@H](Cc2c[nH]c3ccccc23)NC(=O)[C@H](Cc2ccccc2)NC(=O)[C@H](Cc2ccccc2)NC(=O)[C@H](CC(N)=O)NC(=O)[C@H](CCCCN)NC(=O)CCCCC[C@@H](C(=O)O)NC(=O)[C@H](CO)NC1=O [CGP-23996] (HELM PEPTIDE1{K.N.F.F.W.K.T.Y.T.S.[O=C(O)[C@H](CCCCCC(=O)[*:3])N[*:1]]}$PEPTIDE1,PEPTIDE1,1:R1-11:R3$$$V2.0) | 0.6 | 4.7 | 1
